Measured values reported in patent publication US11738022B2, “Methods for inducing pupil dilation” (THE REGENTS OF THE UNIVERSITY OF COLORADO, A BODY CORPORATE, priority 2017, dated 2023).

Experiments:
[1] = test system: iris; settings: men taking tamsulosin, 10 retrospective and prospective studies; cited from earlier work
[2] = test system: pupil; test: Pupil dilation measured with Neuroptics pupillometer after α-2 agonist pre-treatment and/or phenylephrine; type: in vivo, human
Method: Dilation medication used was Phenylephrine hydrochloride 10% (Akorn, Inc). Pupillometer used was a Neuroptics DP-2000 Binocular Pupillometer).
Dilation using phenylephrine hydrochloride 10% was conducted in both eyes of the test subject to use as a control against the other compounds being tested.
After this, dilation using phenylephrine hydrochloride 2.5% or phenylephrine hydrochloride 10% was conducted to investigate the effects of the compound on pupil dilation.
Apracionidine 0.5% was administered in the right eye of the test subject three (3) times a day for 4 days. After this, dilation using phenylephrine hydrochloride 10% was conducted to investigate the effects of the compound on pupil dilation.
After this, dilation using phenylephrine hydrochloride 10% was conducted to investigate the effects of the compound on pupil dilation.
A washout period of multiple months was undertaken in between each experiment.
Pupil measurements were obtained using a Neuroptics pupillometer. Parameters were as follows: Scotopic conditions for 1 second, followed by photopic conditions for 4 seconds (1258.925 lux), followed by scotopic conditions for 10 seconds. This allowed for investigation of scotopic pupil size, photopic pupil size, and scotopic pupil size recovery after the light stimulus concluded.
The pupils of the subject's pretreated right eye and untreated control left eye were then measured under both scotopic and photopic conditions for baseline measurements (FIG. 6A). Photopic conditions consisted of a 4 second window where a light was shining in both eyes simultaneously. […]
The experiment was repeated at a higher dosage wherein the subject was administered a second ophthalmic formulation containing 10% phenylephrine to both eyes. 30 minutes after instillation of 10% phenylephrine, the pupils of the subject were then measured under both scotopic and photopic conditions (FIG. 6C). […] Because the area of a circle is dependent on the radius squared (area of a circle=πr^2), the increase in area that is created from a increasing the pupil dilation size is not linear.
The results were then compared.

[3] = test system: α receptors (α2:α1); settings: affinity ratio; cited from earlier work
[4] = after pre-treatment of right eye only, 3 times a day for 4 days, before phenylephrine
[5] = after pre-treatment of right eye only, 3 times a day for 4 days, before phenylephrine, left eye not treated
[6] = dilation pre and post treatment with α 2 agonist: treated eye vs control measurements of same eye
[7] = non-treated eye dilation compared to treated eye dilation
[8] = photopic conditions (1258.925 lux) after dilation with phenylephrine 10%
[9] = photopic conditions (1258.925 lux) after dilation with phenylephrine 10%, eye without pre-treatment
[10] = right eye pre-treated 3 times a day for 4 days, then phenylephrine 2.5% both eyes (FIG. 6B)
[11] = right eye pre-treated 3 times a day for 4 days, then phenylephrine 2.5% both eyes (FIG. 6B), left eye not pre-treated
[12] = right eye pre-treated 3 times a day for 4 days, then phenylephrine 10% both eyes
[13] = right eye pre-treated 3 times a day for 4 days, then phenylephrine 10% both eyes, left eye not pre-treated

CCOc1ccccc1OCCN[C@H](C)Cc1ccc(OC)c(S(N)(=O)=O)c1 [tamsulosin]
risk of IFIS [1]: up to 90%

Brc1c(NC2=NCCN2)ccc2nccnc12 [Brimonidine, brimonidine]
dilation speed of pretreated eye vs control eye on return to scotopic conditions ([2]; 30 minutes after 2.5% phenylephrine (FIG. 6B)): more rapidly
dilation speed of pretreated eye vs control eye upon removal of the light ([2]; 30 minutes after 10% phenylephrine (FIG. 6C)): more rapidly
average increase in dilation size in the pretreated eye compared to the control eye ([2]; 30 minutes after 10% phenylephrine both eyes (FIG. 6C)): 36%
dilation speed of pretreated eye upon return to scotopic conditions ([2]; after 4 days pre-treatment, before phenylephrine (FIG. 6A)): much more slowly
increase of surgical work area compared to the pre-treatment control dilation amount in the same eye ([2]; after dilation with phenylephrine hydrochloride 10%): approximately 103%
CH LStim Ave [2, 4]: 69%
CH RPupil Ave [2, 4]: 67%
CH RStim Ave [2, 4]: 69%
CH Right [2, 4]: 67%
CLAT LStim Ave [2, 4]: 0.17 s
CLAT RPupil Ave [2, 4]: 0.18 s
CLAT RStim Ave [2, 4]: 0.17 s
CLAT Right [2, 4]: 0.18 s
DELTA LStim Ave [2, 4]: 4.70 mm
DELTA RPupil Ave [2, 4]: 4.21 mm
DELTA RStim Ave [2, 4]: 4.70 mm
DV LStim Ave [2, 4]: 1.02 mm/s
DV RPupil Ave [2, 4]: 1.00 mm/s
DV RStim Ave [2, 4]: 1.02 mm/s
DV Right [2, 4]: 1.00 mm/s
MCV LStim Ave [2, 4]: 6.57 mm/s
MCV RPupil Ave [2, 4]: 6.76 mm/s
MCV RStim Ave [2, 4]: 6.57 mm/s
Max LStim Ave [2, 4]: 6.86 mm
Max RStim Ave [2, 4]: 6.86 mm
Max Right [2, 4]: 6.27 mm
Min LStim Ave [2, 4]: 2.16 mm
Min RPupil Ave [2, 4]: 2.06 mm
Min RStim Ave [2, 4]: 2.16 mm
Min Right [2, 4]: 2.06 mm
CH LPupil Ave [2, 5]: 70%
CH Left [2, 5]: 70%
CLAT LPupil Ave [2, 5]: 0.17 s
CLAT Left [2, 5]: 0.17 s
DELTA Left [2, 5]: 5.21 mm
DV Left [2, 5]: 1.05 mm/s
MCV Left [2, 5]: 6.38 mm/s
Max Left [2, 5]: 7.46 mm
Min Left [2, 5]: 2.25 mm
Pupil size change (%) [2, 6]: +42.62%
Surgical work area change (%) [2, 6]: +103.4%
Pupil size change (%) [2, 7]: +35.81%
Surgical work area (%) [2, 7]: +84.44%
Pupil size, Treated eye [2, 8]: 5.12 mm
Surgical Work area, Treated eye [2, 8]: 20.58 mm^2
Pupil size, Non-treated eye [2, 9]: 3.77 mm
Surgical Work area, Non-treated eye [2, 9]: 11.16 mm^2
dilation of pretreated eye vs control eye ([2]; photopic conditions, 30 minutes after 2.5% phenylephrine (FIG. 6B)): more dilated
dilation of pretreated eye vs control eye ([2]; photopic conditions, 30 minutes after 10% phenylephrine (FIG. 6C)): much more dilated
pupil area, pre-treated eye ([2]; photopic conditions, after 10% phenylephrine (FIG. 6C)): 20.59 mm^2
pupil area, control eye ([2]; photopic conditions, after 10% phenylephrine (FIG. 6C), eye without pre-treatment): 11.16 mm^2
increase in surgical workspace ([2]; pre-treated vs control eye, photopic conditions, after 10% phenylephrine): ~85%
CH LStim Ave [2, 10]: 64%
CH RPupil Ave [2, 10]: 61%
CH RStim Ave [2, 10]: 64%
CH Right [2, 10]: 61%
CLAT LStim Ave [2, 10]: 0.19 s
CLAT RPupil Ave [2, 10]: 0.19 s
CLAT RStim Ave [2, 10]: 0.19 s
CLAT Right [2, 10]: 0.19 s
DELTA LStim Ave [2, 10]: 4.98 mm
DELTA RPupil Ave [2, 10]: 4.70 mm
DELTA RStim Ave [2, 10]: 4.98 mm
DV LStim Ave [2, 10]: 1.36 mm/s
DV RPupil Ave [2, 10]: 1.39 mm/s
DV RStim Ave [2, 10]: 1.36 mm/s
DV Right [2, 10]: 1.39 mm/s
MCV LStim Ave [2, 10]: 6.06 mm/s
MCV RPupil Ave [2, 10]: 5.40 mm/s
MCV RStim Ave [2, 10]: 6.06 mm/s
Max LStim Ave [2, 10]: 7.73 mm
Max RStim Ave [2, 10]: 7.73 mm
Max Right [2, 10]: 7.69 mm
Min LStim Ave [2, 10]: 2.75 mm
Min RPupil Ave [2, 10]: 2.99 mm
Min RStim Ave [2, 10]: 2.75 mm
Min Right [2, 10]: 2.99 mm
CH LPupil Ave [2, 11]: 68%
CH Left [2, 11]: 68%
CLAT LPupil Ave [2, 11]: 0.19 s
CLAT Left [2, 11]: 0.19 s
DELTA Left [2, 11]: 5.26 mm
DV Left [2, 11]: 1.33 mm/s
MCV Left [2, 11]: 6.71 mm/s
Max Left [2, 11]: 7.77 mm
Min Left [2, 11]: 2.51 mm
CH LStim Ave [2, 12]: 52%
CH RPupil Ave [2, 12]: 46%
CH RStim Ave [2, 12]: 52%
CH Right [2, 12]: 46%
CLAT LStim Ave [2, 12]: 0.22 s
CLAT RPupil Ave [2, 12]: 0.20 s
CLAT RStim Ave [2, 12]: 0.22 s
CLAT Right [2, 12]: 0.20 s
DELTA LStim Ave [2, 12]: 4.74 mm
DELTA RPupil Ave [2, 12]: 4.28 mm
DELTA RStim Ave [2, 12]: 4.74 mm
DV LStim Ave [2, 12]: 1.06 mm/s
DV RPupil Ave [2, 12]: 1.09 mm/s
DV RStim Ave [2, 12]: 1.06 mm/s
DV Right [2, 12]: 1.09 mm/s
MCV LStim Ave [2, 12]: 4.22 mm/s
MCV RPupil Ave [2, 12]: 4.20 mm/s
MCV RStim Ave [2, 12]: 4.22 mm/s
Max LStim Ave [2, 12]: 9.18 mm
Max RStim Ave [2, 12]: 9.18 mm
Max Right [2, 12]: 9.40 mm
Min LStim Ave [2, 12]: 4.44 mm
Min RPupil Ave [2, 12]: 5.12 mm
Min RStim Ave [2, 12]: 4.44 mm
Min Right [2, 12]: 5.12 mm
CH LPupil Ave [2, 13]: 58%
CH Left [2, 13]: 58%
CLAT LPupil Ave [2, 13]: 0.24 s
CLAT Left [2, 13]: 0.24 s
DELTA Left [2, 13]: 5.19 mm
DV Left [2, 13]: 1.04 mm/s
MCV Left [2, 13]: 4.25 mm/s
Max Left [2, 13]: 8.96 mm
Min Left [2, 13]: 3.77 mm
dilation of pretreated eye vs control eye ([2]; scotopic and photopic conditions, after 4 days pre-treatment, before phenylephrine (FIG. 6A)): less dilated
dilation of pretreated eye vs control eye ([2]; scotopic conditions, 30 minutes after 2.5% phenylephrine (FIG. 6B)): equally dilated
dilation of pretreated eye vs control eye ([2]; scotopic conditions, 30 minutes after 10% phenylephrine (FIG. 6C)): more dilated
α2:α1 affinity [3]: 976
